Reference: US10183950B2, “Thienopyrimidine inhibitors of atypical protein kinase C” (Cancer Research Technology Limited, priority 2011, dated 2019)

target: T1, full-length human PKCι (Homo sapiens, UniProt P41743); assay: PKCι IC50 IMAP fluorescence polarisation assay, full-length enzyme; type: biochemical; conditions: full length PKCi at 15 μM ATP; read-out: IC50 in IMAP assay against full length PKCi
T1 construct: Recombinant, full-length human PKCι expressed in Sf21 insect cells is also commercially available; purchased; host or cells: Sf21 insect cells
T1 sequence (P41743 1-596): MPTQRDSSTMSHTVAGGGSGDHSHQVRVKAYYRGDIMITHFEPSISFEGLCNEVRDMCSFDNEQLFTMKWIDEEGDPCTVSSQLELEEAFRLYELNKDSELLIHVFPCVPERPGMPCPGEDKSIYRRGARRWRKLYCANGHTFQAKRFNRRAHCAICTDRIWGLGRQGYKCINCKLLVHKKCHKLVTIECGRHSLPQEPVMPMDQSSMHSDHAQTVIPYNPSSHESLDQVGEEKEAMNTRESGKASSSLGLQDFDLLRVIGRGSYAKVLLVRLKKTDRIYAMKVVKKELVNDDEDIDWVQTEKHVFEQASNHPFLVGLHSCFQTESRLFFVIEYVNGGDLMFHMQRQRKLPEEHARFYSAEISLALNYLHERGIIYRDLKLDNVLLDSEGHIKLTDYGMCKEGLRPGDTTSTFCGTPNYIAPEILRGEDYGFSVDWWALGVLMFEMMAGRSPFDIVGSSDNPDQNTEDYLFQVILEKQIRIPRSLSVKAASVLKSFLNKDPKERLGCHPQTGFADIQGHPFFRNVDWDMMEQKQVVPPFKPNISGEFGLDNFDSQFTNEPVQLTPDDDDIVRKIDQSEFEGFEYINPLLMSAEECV
Experimental: Assays are based on the ability of PKCι to phosphorylate a commercially available peptide substrate in vitro. […] Recombinant, full-length human PKCι expressed in Sf21 insect cells is also commercially available. Recombinant, kinase-domain human PKCι is expressed and purified in-house.
The procedure below explains how dose response curves for inhibitors of PKCι are obtained.
Compounds to be tested are dissolved in 100% DMSO. […] 1 μl is plated into 384 well black low-binding flat bottomed assay plates which are used immediately. Dilutions and additions of compound to assay plates are carried out using Matrix WellMate® and Matrix PlateMate® Plus liquid handling systems.
The final concentration of peptide substrate in the assay is 100 nM. […] Relevant controls are included, namely no compound and no enzyme. […] The reaction is allowed to incubate for 60 minutes at room temperature, before the reaction is stopped and developed by the addition of 20 μl IMAP™ development reagent (Molecular Devices). IMAP development reagent consists of 0.25% (v/v) IMAP progressive binding reagent, 17% (v/v) IMAP progressive binding buffer A and 3% (v/v) IMAP progressive binding buffer B. The plates are then incubated for 2 hours at room temperature before being read using an appropriate plate reader, for example a Molecular Devices HT Analyst or a BMG Pherastar.

Structure (SMILES)	IC50 [nM]
NCCNc1nc(-c2ccncc2)nc2c(-c3ccc(Br)cc3)csc12 [compound 310, N*1*-[7-(4-Bromo-phenyl)-2-pyridin-4-yl-thieno[3,2-d]pyrimidin-4-yl]-ethane-1,2-diamine]	1000 to 10000
c1cc(-c2nc(N[C@@H]3CCNC3)c3sccc3n2)ccn1 [compound 317, (2-Pyridin-4-yl-thieno[3,2-d]pyrimidin-4-yl)-(R)-pyrrolidin-3-yl-amine]	1000 to 10000
c1cc(-c2nc(N[C@@H]3CCNC3)c3sccc3n2)cc(Nc2ccc(N3CCOCC3)cn2)n1 [compound 602, {2-[2-(5-Morpholin-4-yl-pyridin-2-ylamino)-pyridin-4-yl]-thieno[3,2-d]pyrimidin-4-yl}-(R)-pyrrolidin-3-yl-amine]	100 to 1000
CCC(C)(C)C(=O)Nc1csc2c(NC[C@@H](N)Cc3ccccc3)nc(-c3ccncc3)nc12 [compound 472, N-[4-((S)-2-Amino-3-phenyl-propylamino)-2-pyridin-4-yl-thieno[3,2-d]pyrimidin-7-yl]-2,2-dimethyl-butyramide]	10000 to 40000
CCC[C@H](O)C#Cc1csc2c(NC[C@@H](N)Cc3ccccc3)nc(-c3ccncc3)nc12 [compound 526, (S)-1-[4-((S)-2-Amino-3-phenyl-propylamino)-2-pyridin-4-yl-thieno[3,2-d]pyrimidin-7-yl]-hex-1-yn-3-ol]	100 to 1000
NC(=O)CN1CC[C@@H](Nc2nc(-c3ccncc3)nc3ccsc23)C1 [compound 320, 2-[(R)-3-(2-Pyridin-4-yl-thieno[3,2-d]pyrimidin-4-ylamino)-pyrrolidin-1-yl]-acetamide]	10000 to 40000
CC(C)NC(=O)c1csc2c(NC[C@@H](N)Cc3ccccc3)nc(-c3ccncc3)nc12 [compound 555, 4-((S)-2-Amino-3-phenyl-propylamino)-2-pyridin-4-yl-thieno[3,2-d]pyrimidine-7-carboxylic acid isopropylamide]	1000 to 10000
Cc1csc(-c2csc3c(NC[C@@H](N)Cc4ccccc4)nc(-c4ccncc4)nc23)c1 [compound 395, (S)-N*1*-[7-(4-Methyl-thiophen-2-yl)-2-pyridin-4-yl-thieno[3,2-d]pyrimidin-4-yl]-3-phenyl-propane-1,2-diamine]	1000 to 10000
C[C@@H](O)CNc1cc(-c2nc(N[C@@H]3CCNC3)c3sccc3n2)ccn1 [compound 592, (R)-1-{4-[4-((R)-Pyrrolidin-3-ylamino)-thieno[3,2-d]pyrimidin-2-yl]-pyridin-2-ylamino}-propan-2-ol]	1000 to 10000
CC(C)(C)c1sc2c(NC[C@@H](N)Cc3ccccc3)nc(-c3ccncc3)nc2c1-c1cccc(F)c1 [compound 436, (S)-N*1*-[6-tert-Butyl-7-(3-fluoro-phenyl)-2-pyridin-4-yl-thieno[3,2-d]pyrimidin-4-yl]-3-phenyl-propane-1,2-diamine]	10000 to 40000
O=C(Nc1cc(-c2nc(N[C@@H]3CCNC3)c3sccc3n2)ccn1)C1CC1 [compound 599, Cyclopropanecarboxylic acid {4-[4-((R)-pyrrolidin-3-ylamino)-thieno[3,2-d]pyrimidin-2-yl]-pyridin-2-yl}-amide]	100 to 1000
C[C@@H](Nc1cc(-c2nc(N[C@@H]3CCNC3)c3sccc3n2)ccn1)c1ccccc1 [compound 586, {2-[2-((R)-1-Phenyl-ethylamino)-pyridin-4-yl]-thieno[3,2-d]pyrimidin-4-yl}-(R)-pyrrolidin-3-yl-amine]	100 to 1000
N[C@H](CNc1nc(-c2ccncc2F)nc2c(-c3cc[nH]c3)csc12)Cc1ccccc1 [compound 420, (S)-N*1*-[2-(3-Fluoro-pyridin-4-yl)-7-(1H-pyrrol-3-yl)-thieno[3,2-d]pyrimidin-4-yl]-3-phenyl-propane-1,2-diamine]	100 to 1000

Now from value to molecule:

IC50 [nM]	Structure (SMILES)
< 100	N[C@H](CNc1nc(-c2ccncc2)nc2c(C#CC3(O)CCCC3)csc12)Cc1ccccc1 [compound 528]
100 to 1000	CCNC(=O)c1csc2c(NC[C@@H](N)Cc3ccccc3)nc(-c3ccncc3)nc12 [compound 554, 4-((S)-2-Amino-3-phenyl-propylamino)-2-pyridin-4-yl-thieno[3,2-d]pyrimidine-7-carboxylic acid ethylamide]
10000 to 40000	COc1cccc(OC)c1-c1c(C)sc2c(NC[C@@H](N)Cc3ccccc3)nc(-c3ccncc3)nc12 [compound 454, (S)-N*1*-[7-(2,6-Dimethoxy-phenyl)-6-methyl-2-pyridin-4-yl-thieno[3,2-d]pyrimidin-4-yl]-3-phenyl-propane-1,2-diamine]
1000 to 10000	Cn1cc(-c2csc3c(NC[C@@H](N)Cc4ccccc4)nc(-c4ccncc4)nc23)cn1 [compound 411, (S)-N*1*-[7-(1-Methyl-1H-pyrazol-4-yl)-2-pyridin-4-yl-thieno[3,2-d]pyrimidin-4-yl]-3-phenyl-propane-1,2-diamine]
1000 to 10000	Cc1ccc(-c2c(C(C)(C)C)sc3c(NC[C@@H](N)Cc4ccccc4)nc(-c4ccncc4)nc23)s1 [compound 447, (S)-N*1*-[6-tert-Butyl-7-(5-methyl-thiophen-2-yl)-2-pyridin-4-yl-thieno[3,2-d]pyrimidin-4-yl]-3-phenyl-propane-1,2-diamine]
1000 to 10000	CC(C)(C)NC(=O)c1csc2c(NC[C@@H](N)Cc3ccccc3)nc(-c3ccncc3)nc12 [compound 557, 4-((S)-2-Amino-3-phenyl-propylamino)-2-pyridin-4-yl-thieno[3,2-d]pyrimidine-7-carboxylic acid tert-butylamide]
1000 to 10000	c1cc(-c2nc(N[C@@H]3CCNC3)c3sccc3n2)cc(Nc2ccc(CN3CCCC3)cc2)n1 [compound 611, (R)-Pyrrolidin-3-yl-{2-[2-(4-pyrrolidin-1-ylmethyl-phenylamino)-pyridin-4-yl]-thieno[3,2-]pyrimidin-4-yl}-amine]
1000 to 10000	NC(CNc1nc(-c2ccncc2F)nc2c(-c3ccsc3)csc12)Cc1ccccc1 (stereo in doubt) [compound 431, (R)-N*1*-[2-(3-Fluoro-pyridin-4-yl)-7-thiophen-3-yl-thieno[3,2-d]pyrimidin-4-yl]-3-phenyl-propane-1,2-diamine]
100 to 1000	COc1cccc(C(=O)Nc2cc(-c3nc(N[C@@H]4CCNC4)c4sccc4n3)ccn2)c1 [compound 596, 3-Methoxy-N-{4-[4-((R)-pyrrolidin-3-ylamino)-thieno[3,2-d]pyrimidin-2-yl]-pyridin-2-yl}-benzamide]
100 to 1000	N[C@H](CNc1nc(-c2ccncc2)nc2c(-c3ccc(F)cc3)csc12)Cc1ccccc1 [compound 409, (S)-N*1*-[7-(4-Fluoro-phenyl)-2-pyridin-4-yl-thieno[3,2-d]pyrimidin-4-yl]-3-phenyl-propane-1,2-diamine]

same assay, conditions: full length PKCi at 15 μM ATP; read-out: IC50 in IMAP assay against full length PKCi (Activity)

Structure (SMILES)	IC50 [nM]
N[C@@H](CNc1nc(-c2ccncc2)nc2sc3c(c12)CCCC3)Cc1csc2ccccc12 [compound 61, (R)-3-Benzo[b]thiophen-3-yl-N*1*-(2-pyridin-4-yl-5,6,7,8-tetrahydro-benzo[4,5]thieno[2,3-d]pyrimidin-4-yl)-propane-1,2-diamine]	1000 to 10000
N[C@H](CNc1nc(-c2ccncc2)nc2sc3c(c12)CCN(C(=O)c1ccccc1)C3)Cc1ccccc1 [compound 72, [4-((S)-2-Amino-3-phenyl-propylamino)-2-pyridin-4-yl-5,8-dihydro-6H-pyrido[4′,3′:4,5]thieno[2,3-d]pyrimidin-7-yl]-phenyl-methanone]	1000 to 10000
CC1(C)CCc2c(sc3nc(-c4ccncc4)nc(NCCN)c23)C1 [compound 43, N*1*-(7,7-Dimethyl-2-pyridin-4-yl-5,6,7,8-tetrahydro-benzo[4,5]thieno[2,3-d]pyrimidin-4-yl)-ethane-1,2-diamine]	1000 to 10000

Other lines, results leading:

IC50 [nM]	Structure (SMILES)
100 to 1000	N[C@H](CNc1nc(-c2ccncc2)nc2sc3c(c12)CCSC3)Cc1ccccc1 [compound 80, (S)-3-Phenyl-N*1*-(2-pyridin-4-yl-5,8-dihydro-6H-thiopyrano[4′,3′:4,5]thieno[2,3-d]pyrimidin-4-yl)-propane-1,2-diamine]
1000 to 10000	N[C@@H](CNc1nc(-c2ccncc2)nc2sc3c(c12)CCSC3)Cc1ccccc1 [compound 81, (R)-3-Phenyl-N*1*-(2-pyridin-4-yl-5,8-dihydro-6H-thiopyrano[4′,3′:4,5]thieno[2,3-d]pyrimidin-4-yl)-propane-1,2-diamine]
